Test results reported in patent US9187487B2, “Azaindole derivatives as tyrosine kinase inhibitors” (PRINCIPIA BIOPHARMA, INC., priority 2011, dated 2015).

target: recombinant JAK3 (catalytic domain, aa 781-1124) (Homo sapiens (Human), UniProt P52333); assay: JAK3 Caliper Peptide Phosphorylation Assay; type: biochemical; conditions: fluorescently labeled Srctide substrate 1 uM; ATP at 1×Km (2 uM); 2 hours at 25° C.
Protocol: JAK3 Caliper Peptide Phosphorylation Assay
Phosphorylation of the appropriate peptide substrate (fluorescently labeled Srctide) by recombinant JAK3 (catalytic domain, aa 781-1124) was measured in the presence and absence of different concentrations of test compounds. Test compound, enzyme, fluorescently labeled substrate, and cofactors (ATP and Mg^2+) were combined in a well of a microtiter plate and incubated for 2 hours at 25° C. The composition of the reaction buffer was 100 mM HEPES pH 7.5, 5 mM MgCl2, 0.01% Triton-X 100, 0.1% Bovine Serum Albumin, and 1% DMSO. Enzyme concentration in the final reaction mixture was 0.5 nM while peptide substrate was at 1 uM. ATP was used at 1×Km concentration corresponding to 2 uM. Serial dilutions (3-fold steps) of compounds were prepared in DMSO. At the end of the incubation, the reaction was stopped by the addition of 20 mM EDTA. Substrate and product (i.e. phosphorylated substrate) were separated electrophoretically and both were quantified by fluorescence intensity using the microfluidics-based LabChip 3000 Drug Discovery System from Caliper Life Sciences. Conversion for each well was calculated and plotted as function of test compound concentration. IC50 value was determined by fitting the data to a 4-parameter logistic model by non-linear regression (XLfit model 205). In every assay, Staurosporine was tested in the same manner as reference compound. Selectivity for JAK3 was determined using commercially available kinase cross-screening services (DiscoveRx, San Diego, Calif.).

recombinant JAK3 (catalytic domain, aa 781-1124), sequence (P52333 781-1124): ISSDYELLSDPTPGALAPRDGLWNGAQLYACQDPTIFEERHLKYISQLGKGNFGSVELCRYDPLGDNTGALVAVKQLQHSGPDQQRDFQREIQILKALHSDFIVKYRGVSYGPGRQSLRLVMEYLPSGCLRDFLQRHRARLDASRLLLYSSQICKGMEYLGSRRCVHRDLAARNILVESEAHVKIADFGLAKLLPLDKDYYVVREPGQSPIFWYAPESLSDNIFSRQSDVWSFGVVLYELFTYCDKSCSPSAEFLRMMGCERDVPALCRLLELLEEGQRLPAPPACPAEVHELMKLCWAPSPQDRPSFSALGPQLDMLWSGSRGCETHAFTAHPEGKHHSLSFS

Structure (SMILES) | IC50
CN(C)C(=O)C(C#N)=Cc1ccc(Nc2ncnc3[nH]ccc23)cc1 [compound 6, 3-(4-((7H-pyrrolo[2,3-d]pyrimidin-4-yl)amino)-phenyl)-2-cyano-N,N-dimethylacrylamide] | 580 nM
CN(C)C(=O)C(C#N)=Cc1cccc(-c2ncnc3[nH]ccc23)c1 [compound 1, 3-(3-(7H-pyrrolo[2,3-d]pyrimidin-4-yl)phenyl)-2-cyano-N,N-dimethylacrylamide] | 305 nM
CN(C)C(=O)C(C#N)=Cc1cccc(N(C)c2ncnc3[nH]ccc23)c1 [compound 4, 2-cyano-N,N-dimethyl-3-(3-(methyl(7H-pyrrolo[2,3-d]pyrimidin-4-yl)amino)phenyl)acrylamide] | > 1000 nM
CC(C)(C)C(=O)c1c[nH]c2ncc(Nc3ccc(C=C(C#N)C(N)=O)cc3)nc12 [compound 60, 2-cyano-3-(4-((7-pivaloyl-5H-pyrrolo[2,3-b]-pyrazin-2-yl)amino)phenyl)acrylamide] | 0.4 nM
CC(C)NC(=O)c1c[nH]c2ncc(-c3cccc(C=C(C#N)C(=O)N(C)C)c3)nc12 [compound 47, 2-(3-(2-cyano-3-(dimethylamino)-3-oxoprop-1-en-1-yl)phenyl)-N-isopropyl-5H-pyrrolo[2,3-b]pyrazine-7-carboxamide] | 13 nM
CN(C)C(=O)C(C#N)=Cc1ccc(Nc2cnc3[nH]cc(C(=O)C(C)(C)C)c3n2)cc1 [compound 57, 2-cyano-N,N-dimethyl-3-(4-((7-pivaloyl-5H-pyrrolo[2,3-b]pyrazin-2-yl)amino)phenyl)-acrylamide] | 1 nM
CN(C)C(=O)C(C#N)=Cc1cccc(Nc2cnc3[nH]ccc3n2)c1 [compound 29, 3-(3-((5H-pyrrolo[2,3-b]pyrazin-2-yl)amino)phenyl)-2-cyano-N,N-dimethylacrylamide] | > 1000 nM
Cc1c(C=C(C#N)C(=O)N(C)C)cccc1Nc1ncnc2[nH]ccc12 [compound 16, 3-(3-((7H-pyrrolo[2,3-d]pyrimidin-4-yl)amino)-2-methylphenyl)-2-cyano-N,N-dimethylacrylamide] | 1270 nM
CN(C)C(=O)C(C#N)=Cc1cccc(Oc2cnc3[nH]ccc3n2)c1 [compound 31, 3-(3-((5H-pyrrolo[2,3-b]pyrazin-2-yl)oxy)phenyl)-2-cyano-N,N-dimethylacrylamide] | > 1000 nM

Now from value to compound:

IC50 | Structure (SMILES)
210 nM | CN(C)C(=O)C(C#N)=Cc1ccc(Nc2cnc3[nH]cc(C(=O)C(C)(C)C)c3n2)s1 [compound 73, 2-cyano-N,N-dimethyl-3-(5-((7-pivaloyl-5H-pyrrolo[2,3-b]pyrazin-2-yl)amino)thiophen-2-yl)acrylamide]
1 nM | CN(C)C(=O)C(C#N)=Cc1ccc(Nc2cnc3[nH]cc(C(=O)C(C)(C)C)c3n2)cc1Cl [compound 68, 3-(2-chloro-4-(7-pivaloyl-5H-pyrrolo-[2,3-b]pyrazin-2-ylamino)phenyl)-2-cyano-N,N-dimethylacrylamide]
0.7 nM | CC(C)NC(=O)c1c[nH]c2ncc(Nc3ccc(C=C(C#N)C(=O)N4CCOCC4)cc3)nc12 [compound 80, N-(isopropyl)-2-((4-(2-cyano-3-morpholino-3-oxoprop-1-en-1-yl)phenyl)amino)-5H-pyrrolo[2,3-b]pyrazine-7-carboxamide]
0.4 nM | CC(C)(C)C(=O)c1c[nH]c2ncc(Nc3ccc(C=C(C#N)C(=O)N4CCC4)cc3)nc12 [compound 62, 2-(azetidine-1-carbonyl)-3-(4-((7-pivaloyl-5H-pyrrolo[2,3-b]pyrazin-2-yl)amino)phenyl)acrylonitrile]
100 nM | CCOC(=O)C(C#N)=Cc1ccc(Nc2cnc3[nH]cc(C(=O)C(C)(C)C)c3n2)cc1 [compound 79, ethyl 2-cyano-3-(4-((7-pivaloyl-5H-pyrrolo[2,3-b]-pyrazin-2-yl)amino)phenyl)acrylate]
1 nM | CC(C)(C)C(=O)c1c[nH]c2ncc(Nc3ccc(C=C(C#N)C(=O)N4CCCCC4)cc3)nc12 [compound 76, 2-(piperidine-1-carbonyl)-3-(4-((7-pivaloyl-5H-pyrrolo[2,3-b]pyrazin-2-yl)amino)phenyl)-acrylonitrile]
0.5 nM | CN(C)C(=O)C(C#N)=Cc1ccc(Nc2cnc3[nH]cc(C(=O)C(C)(C)C)c3n2)c(F)c1 [compound 69, 2-cyano-3-(3-fluoro-4-((7-pivaloyl-5H-pyrrolo[2,3-b]pyrazin-2-yl)amino)phenyl)-N,N-dimethylacrylamide]
0.6 nM | CC(C)(C)C(=O)c1c[nH]c2ncc(Nc3ccc(C=C(C#N)S(C)(=O)=O)cc3)nc12 [compound 81, 2-(methylsulfonyl)-3-(4-((7-pivaloyl-5H-pyrrolo[2,3-b]pyrazin-2-yl)amino)phenyl)-acrylonitrile]
